We go through 3 molecules from US10765638B2, “Particle formulation with polycation complex” (Yale University, priority 2017, dated 2020).

The test system of one data set is LC-1F. Particulars: read-out: IC50 for erlotinib (printed in the Afatinib column, marked &), cancerrxgene.org; cited from earlier work.
For a further data set, the system named is H1975 and H1975-OR cells. Put plainly: MTT proliferation assay. Particulars: 1 μM Osimertinib. The class given is cell-based. How it is done: The H1975 and A549 cell lines were purchased from ATCC (Manassas, Va.), the PC9 cell line was a gift from Katie Politi, and the HCC-827 and HCC-827-GR lines were gifts from Jeff Engelman (MGH, Boston Mass.). Cell lines were cultured in RPMI 1640+10% FBS supplemented with penicillin and streptomycin (Gibco, Life Technologies, Grand Island, N.Y., US) in a humidified incubator with 5% CO2, and they were kept in culture no more than 4 months after resuscitation from the original stocks. No additional authentication was performed. Mycoplasma cell culture contamination was routinely checked and ruled out using the MycoAlert Mycoplasma Detection Kit (Lonza, Rockland, Me. USA). To generate a TKI resistant cell lines, either PC9 or H1975 cells were exposed to increasing concentrations of gefitinib or osimertinib, respectively. Gefitinib or Osimertinib concentrations were increased stepwise when cells resumed growth kinetics similar to the untreated parental cells over a dose range from 10 to 500 nM. Resistant cell cultures were obtained ˜8-12 weeks after initiation of drug exposure. To confirm the emergence of a therapeutic resistant, MTT assays were performed after allowing the cells to grow in drug-free conditions for at least 4 days.
Growth rates were determined by CellTiter 96 NonRadioactive Cell Proliferation Assay (Promega; Madison, Wis., USA) according to the manufacturer's directions. Briefly, NSCLC cells (2×103) untreated or treated with 10 μM NGI-1, 100 nM Gefitinib, or 1 μM Osimertinib (Selleck Chemicals), were seeded in triplicate in 96-wells plates and grown in culture medium containing 10% serum. The media was changed with or without new inhibitor every 48 h. Cell numbers were estimated after 0, 3, and 5 days by adding MTT (3-(4,5-dimethylthiazol-2-yl)-2,5-diphenyltetrazolium bromide) reagent to the wells 4 h before taking the spectrophotometric reading (absorbance at 570 nm).
On the technique in general: Tetrazolium assays rely on reduction of a dye to a coloured formazan, in cell work by metabolically active cells.

The test system of a further data set is H1975-OR xenografts. Put plainly: NSCLC xenograft tumor growth. The class given is in vivo, athymic Swiss nu/nu mice. Particulars: 5 mg/kg osimertinib oral daily; 5 mg/kg NGI-1-NP as printed in b391 (20 mg/kg elsewhere in the source); blank NPs 926±253 mm3. How it is done: The effects of NGI-1 were evaluated in Six-to-eight-week old female athymic Swiss nu/nu mice bearing bilateral flank xenograft tumors. Five days after inoculation, mice were randomized to receive i.v. NGI-1 NPs (20 mg/kg) or blank NPs three times per week for a total of 8 doses. […] Tumor size was measured three times per week and volume was calculated according to the formula π/6×(length)×(width)^2.

The next data set relates to D54-ERLucT xenografts. Put plainly: Bioluminescent imaging of inhibition of N-linked glycosylation in xenografts. It is filed as in vivo, mice. The note with it: 24 hours; tunicamycin 1 mg/kg, positive control. How it is done: All experimental procedures were approved in accordance with IACUC and Yale University institutional guidelines for animal care and ethics and guidelines for the welfare and use of animals in cancer research (Workman et al., Br J Cancer, 102:1555-77 (2010)). NGI-1 delivery to glioma xenografts was evaluated using a bioluminescent imaging platform that detects inhibition of NLG (Contessa at al., Clin Cancer Res., 16:3205-14 (2010)). Ten days after subcutaneous injection of 1×10^7 gliomas cells, mice bearing palpable tumors were treated with control or NGI-1 NPs (20 mg/kg), or tunicamycin 1 mg/kg and imaged 5-30 minutes after delivery of i.p. luciferin (150 mg/kg). Signal intensity was quantified for a region of interest (ROI) encompassing each tumor and induction of bioluminscence was calculated by comparing peak bioluminescent activity from pre- and post-treatment imaging at 24 and 48 hours.

For data set [1] the following is noted: Contessa et al., Clin Cancer Res. 2010; cited from earlier work.

A word on the IC50: it is the concentration at which inhibition is half-maximal. Take `C#Cc1cccc(Nc2ncnc3cc(OCCOC)c(OCCOC)cc23)c1` [erlotinib]: the IC50 with LC-1F was 390 nM.

Regarding `C=CC(=O)Nc1cc(Nc2nccc(-c3cn(C)c4ccccc34)n2)c(OC)cc1N(C)CCN(C)C` [osimertinib], the “sensitivity of proliferation to osimertinib” value in the data set with H1975 and H1975-OR cells (H1975-OR cells) is reported as “resistant”; with H1975 and H1975-OR cells (H1975 cells), “sensitive”. Further, the “mean tumor volume at day 78” value with H1975-OR xenografts was determined as 584±296 mm^3.

In turn, tunicamycin gave an induction of bioluminescence in the data set on D54-ERLucT xenografts of 4.2 fold. Besides, in data set [1], the toxicity entry is “significant toxicity both in vitro and in vivo”.
